Data published in paper PMC4220977, “Enzyme–adenylate structure of a bacterial ATP-dependent DNA ligase with a minimized DNA-binding surface” (Acta Crystallographica Section D: Biological Crystallography, 2014).

Experiments:
Psy-Lig = target: T1, Psy-Lig (Psychromonas sp. SP041, UniProt A0ACD6BAT9); assay: X-ray crystal structure, […] Å (SeMet protein); format: binding; details: covalent; phosphoamide bond to Lys25 side chain (mature numbering), enzyme-adenylate intermediate formed from ATP; active site
T1 construct: mature protein, 40-residue periplasmic leader removed (cleavage Ala40/Gln41), 257 residues; N-terminal His tag and TEV site, vector pHMGWA, expressed in E. coli; pre-adenylated with ATP; SeMet form crystallised

[1] = substrate: Nc1ncnc2c1ncn2[C@@H]1O[C@H](COP(=O)(O)OP(=O)(O)OP(=O)(O)O)[C@@H](O)[C@H]1O; assay: molecular beacon fluorescence nick-sealing assay, Michaelis-Menten fit; format: biochemical, Psychromonas sp. SP041; details: 300 nM nicked ds-DNA beacon, 2.0 nM enzyme, 10 mM MgCl2, 100 mM NaCl, 1 mM DTT, 50 mM Tris pH 8.0, 30 °C, ATP 0-50 µM

In the case of `Nc1ncnc2c1ncn2[C@@H]1O[C@H](COP(=O)(O)O)[C@@H](O)[C@H]1O` [AMP], the “X-ray crystal structure, 1.65 Å (SeMet protein)” value (Psy-Lig) is reported as “AMP bound in the active site was clear in the observed electron density, covalently linked”.

B1: Psy-Lig (Psychromonas sp. SP041) (protein)
chain: QPPPIQLATNYRQDIDVTQYYVSEKLDGIRAYWNGHQLISKQGNIFTAPTWFIASFPTTAMDGELWIARQQFETVSGIARTQDNQNEQWKQIKFMIFDLPKSTVSFEQRINKMQTLVTDTNSPYLQMIEQQKIPNTVALFDLLNKVVMGKGEGLMLHHQDALYQTKRSRDLMKLKKFEDAEATVIAYLPGKGKYEGLLGAILVKNEEGVTFKIGSGFSDEERSTPPPIGSLITYRFTGKTNNNIPRFASFVRIRVIY
notes: mature protein, 40-residue periplasmic leader removed (cleavage Ala40/Gln41), 257 residues; N-terminal His tag and TEV site, vector pHMGWA, expressed in E. coli; pre-adenylated with ATP; SeMet form crystallised
With B1 the Km [1] was 3.8 ± 0.7 µM.
